Data as given in patent US20070249634A1, “Triazolopyrimidine Compounds and Use Thereof for Controlling Harmful Fungi” (priority 2004, published 2007).

- melting point: 199 to 204 °C
SMILES: CC1CCN(c2c(-c3cc([N+](=O)[O-])ccc3Cl)c(Cl)nc3ncnn23)CC1 [compound 56, 5-chloro-6-(2-chloro-5-nitrophenyl)-7-(4-methylpiperidin-1-yl)-[1,2,4]-triazolo[1,5-a]pyrimidine]
